Test results reported in patent US9662310B2, “Cyclopropanecarboxylic acid derivative” (DAIICHI SANKYO COMPANY, LIMITED, priority 2010, dated 2017).

biological target: TAFIa (Homo sapiens (Human), UniProt Q96IY4); assay: Determination of TAFIa enzyme inhibitory activity (FAAK substrate degradation); assay type: biochemical; details: TAFI activated with human thrombin / rabbit lung thrombomodulin; substrate FAAK, absorbance at 330 nm; di-p-toluenesulfonate; read-out: TAFIa IC50
Procedure: Determination of TAFIa Enzyme Inhibitory Activity
HEPES buffered saline (20 mM HEPES, 150 mM NaCl, pH 7.4; hereinafter, referred to as HBS) was used in the preparation of a reaction solution. To 12 μL of a 250 μg/mL TAFI solution, 30 μL of an HBS solution containing 4 U/mL human thrombin, 12 U/mL rabbit lung thrombomodulin, and 12 mM CaCl2 was added, and the mixture was gently stirred. Then, TAFI was activated at room temperature. Ten minutes later, thrombin was neutralized by the addition of 10 μL of 100 μM PPACK (thrombin inhibitor) to terminate the activation of TAFI. The formed TAFIa was stored in ice and diluted immediately before use in determination with 2050 μL of an HBS solution containing BSA (bovine serum albumin) adjusted to 0.1% in terms of the final concentration.
(2) Determination of TAFIa Inhibitory Activity
A test substance was dissolved in HBS to prepare a 10-fold dilution series of evaluation concentrations. 80 μL of the TAFIa solution and 10 μL of the test substance were added to each well of a 96-well plate and mixed by shaking for 10 minutes. 10 μL of furylacryloyl-alanyl-lysine (FAAK) adjusted to 5 mg/mL was added to each well, and the change in the absorbance of this mixed solution at 330 nm was read for 30 minutes to determine the degradation rate of the substrate.
(3) Calculation of Inhibitory Activity IC50
The degradation rate of the substrate in each well was applied to a standard curve prepared using the dilution series of the TAFIa solution to calculate TAFIa activity.

Chain of TAFIa (Q96IY4 115-423): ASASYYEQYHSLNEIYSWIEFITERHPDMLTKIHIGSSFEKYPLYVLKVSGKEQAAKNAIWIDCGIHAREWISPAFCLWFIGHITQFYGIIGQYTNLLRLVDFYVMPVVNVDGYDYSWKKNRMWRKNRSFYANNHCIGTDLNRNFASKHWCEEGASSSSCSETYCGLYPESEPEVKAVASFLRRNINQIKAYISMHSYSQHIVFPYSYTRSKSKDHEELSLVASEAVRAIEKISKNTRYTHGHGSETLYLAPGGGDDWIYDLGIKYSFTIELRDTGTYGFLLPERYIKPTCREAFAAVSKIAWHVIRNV

| Compound | IC50 [nM] |
| --- | --- |
| NCCC[C@H]1C[C@]1(C(=O)O)c1cn(-c2ccccc2)cn1 [Example 31, (1R,2S)-2-(3-Aminopropyl)-1-(1-phenyl-1H-imidazol-4-yl)cyclopropanecarboxylic acid di-p-toluenesulfonate] | 15 |

same assay, conditions: TAFI activated with human thrombin / rabbit lung thrombomodulin; substrate FAAK, absorbance at 330 nm; read-out: TAFIa IC50

| Compound | IC50 [nM] |
| --- | --- |
| Cc1cccc(-n2cnc([C@@]3(C(=O)O)C[C@@H]3CCCN)c2)c1 (relative stereo) [Example 8, (1R*,2S*)-2-(3-Aminopropyl)-1-[1-(3-methylphenyl)-1H-imidazol-4-yl]cyclopropanecarboxylic acid] | 37 |
| COc1ccc(-n2cnc([C@@]3(C(=O)O)C[C@@H]3CCCN)c2)cc1 (relative stereo) [Example 12, (1R*,2S*)-2-(3-Aminopropyl)-1-[1-(4-methoxyphenyl)-1H-imidazol-4-yl]cyclopropanecarboxylic acid] | 36 |
| Cc1ccc(-n2cnc([C@@]3(C(=O)O)C[C@@H]3CCCN)c2)cc1C (relative stereo) [Example 10, (1R*,2S*)-2-(3-Aminopropyl)-1-[1-(3,4-dimethylphenyl)-1H-imidazol-4-yl]cyclopropanecarboxylic acid] | 42 |
| CC[C@@H](CN)C[C@@H]1C[C@@]1(C(=O)O)c1cn(-c2ccccn2)cn1 [Example 61, (1S,2R)-2-[(2R)-2-(Aminomethyl)butyl]-1-(1-pyridin-2-yl-1H-imidazol-4-yl)cyclopropanecarboxylic acid] | 360 |
| C[C@H]1CC[C@H](n2cnc([C@@]3(C(=O)O)C[C@@H]3CCCN)c2)CC1 (relative stereo) [Example 5, (1R*,2S*)-2-(3-Aminopropyl)-1-[1-(trans-4-methylcyclohexyl)-1H-imidazol-4-yl]cyclopropanecarboxylic acid] | 14 |
| Cc1ccccc1-n1cnc([C@@]2(C(=O)O)C[C@@H]2CCCN)c1 (relative stereo) [Example 9, (1R*,2S*)-2-(3-Aminopropyl)-1-[1-(2-methylphenyl)-1H-imidazol-4-yl]cyclopropanecarboxylic acid] | > 300 |
| C[C@H](CN)C[C@H]1C[C@]1(C(=O)O)c1cn(-c2ccccn2)cn1 [Example 56, (1R,2S)-2-[(2S)-3-Amino-2-methylpropyl]-1-(1-pyridin-2-yl-1H-imidazol-4-yl]cyclopropanecarboxylic acid] | 33 |
| NCCC[C@H]1C[C@]1(C(=O)O)c1cn(-c2ccc(Oc3ccccc3)cc2)cn1 (relative stereo) [Example 16, (1R*,2S*)-2-(3-Aminopropyl)-1-[1-(4-phenoxyphenyl)-1H-imidazol-4-yl]cyclopropanecarboxylic acid] | 52 |
| NCCC[C@H]1C[C@]1(C(=O)O)c1cn(-c2ccccn2)cn1 [Example 48, (1R,2S)-2-(3-Aminopropyl)-1-(1-pyridin-2-yl-1H-imidazol-4-yl)cyclopropanecarboxylic acid] | 11 |
| Cc1ccc(-n2cnc([C@@]3(C(=O)O)C[C@@H]3CCCN)c2)nc1 (relative stereo) [Example 49, (1R*,2S*)-2-(3-Aminopropyl)-1-[1-(5-methylpyridin-2-yl)-1H-imidazol-4-yl]cyclopropanecarboxylic acid] | 18 |
| CC(C)(C)CCn1cnc([C@]2(C(=O)O)C[C@H]2CCCN)c1 [Example 27, (1S,2R)-2-(3-Aminopropyl)-1-[1-(3,3-dimethylbutyl)-1H-imidazol-4-yl]cyclopropanecarboxylic acid] | > 100 |
| CC[C@@H](CN)C[C@H]1C[C@]1(C(=O)O)c1cn(-c2ccccc2)cn1 [Example 62, (1R,2S)-2-[(2R)-2-(Aminomethyl)butyl]-1-(1-phenyl-1H-imidazol-4-yl)cyclopropanecarboxylic acid] | 7.9 |
| Cc1cccc(-n2cnc([C@@]3(C(=O)O)C[C@@H]3CCCN)c2)n1 (relative stereo) [Example 65, (1R*,2S*)-2-(3-Aminopropyl)-1-[1-(6-methylpyridin-2-yl)-1H-imidazol-4-yl]cyclopropanecarboxylic acid] | 73 |
| CC(CCN)[C@H]1C[C@]1(C(=O)O)c1cn(-c2ccccc2)cn1 (relative stereo) [Example 36, (1R*,2R*)-2-(3-Amino-1-methylpropyl)-1-(1-phenyl-1H-imidazol-4-yl)cyclopropanecarboxylic acid] | 36 |
| NCCC[C@H]1C[C@]1(C(=O)O)c1cn(-c2ccc3occc3c2)cn1 (relative stereo) [Example 43, (1R*,2S*)-2-(3-Aminopropyl)-1-[1-(1-benzofuran-5-yl)-1H-imidazol-4-yl]cyclopropanecarboxylic acid] | 26 |
| CC(C)(CN)C[C@@H]1C[C@]1(C(=O)O)c1cn(-c2ccccc2)cn1 (relative stereo) [Example 52, (1R*,2R*)-2-(3-Amino-2,2-dimethylpropyl)-1-(1-phenyl-1H-imidazol-4-yl]cyclopropanecarboxylic acid] | > 300 |
| NCCC[C@H]1C[C@]1(C(=O)O)c1cn(-c2ccccc2)cn1 [Example 30, (1R,2S)-2-(3-Aminopropyl)-1-(1-phenyl-1H-imidazol-4-yl)cyclopropanecarboxylic acid] | 13 |
| NCCC[C@H]1C[C@]1(C(=O)O)c1cn(-c2cccc(Cl)c2)cn1 (relative stereo) [Example 19, (1R*,2S*)-2-(3-Aminopropyl)-1-[1-(3-chlorophenyl)-1H-imidazol-4-yl]cyclopropanecarboxylic acid] | 70 |
| C[C@H](CCN)C1CC1(C(=O)O)c1cn(-c2ccccn2)cn1 (stereo partly drawn) [Example 68, 2-[(2R)-4-Aminobutane-2-yl]-1-[1-(pyridin-2-yl)-1H-imidazol-4-yl)cyclopropanecarboxylic acid] | 12 |
| NCCC[C@H]1C[C@]1(C(=O)O)c1cn(-c2ncccn2)cn1 (relative stereo) [Example 39, (1R*,2S*)-2-(3-Aminopropyl)-1-(1-pyrimidin-2-yl-1H-imidazol-4-yl)cyclopropanecarboxylic acid] | 30 |
| NCCC[C@H]1C[C@]1(C(=O)O)c1cn(-c2ccccc2)cn1 (relative stereo) [Example 6, (1R*,2S*)-2-(3-Aminopropyl)-1-(1-phenyl-1H-imidazol-4-yl)cyclopropanecarboxylic acid] | 27 |
| N#Cc1ccc(-n2cnc([C@@]3(C(=O)O)C[C@@H]3CCCN)c2)cc1 (relative stereo) [Example 40, (1R*,2S*)-2-(3-Aminopropyl)-1-[1-(4-cyanophenyl)-1H-imidazol-4-yl]cyclopropanecarboxylic acid] | 29 |
| NCCC[C@H]1C[C@]1(C(=O)O)c1cn(-c2cccc(F)c2)cn1 (relative stereo) [Example 22, (1R*,2S*)-2-(3-Aminopropyl)-1-[1-(3-fluorophenyl)-1H-imidazol-4-yl]cyclopropanecarboxylic acid] | 40 |

same assay, conditions: read-out: TAFIa IC50

| Compound | IC50 [nM] |
| --- | --- |
| CC(C)(C)CCn1cnc([C@@]2(C(=O)O)C[C@@H]2CCCN)c1 [Example 28, (1R,2S)-2-(3-Aminopropyl)-1-[1-(3,3-dimethylbutyl)-1H-imidazol-4-yl]cyclopropanecarboxylic acid] | 4.5 |
| CCC(CN)CC1C[C@]1(C(=O)O)c1cn(-c2ccccc2)cn1 (stereo partly drawn) [Example 53, (1R,2S)-2-[(2-Aminomethyl)butyl]-1-(1-phenyl-1H-imidazol-4-yl]cyclopropanecarboxylic acid] | 13 |
